Here are results for 4 compounds from patent US5902822A, “7-methylthiooxomethyl and 7-methylthiodioxomethyl paclitaxels” (Bristol-Myers Squibb Company, priority 1998, dated 1999).

One experiment deals with M109 lung carcinoma. Nature of the experiment: Mice M109 model, advanced distal site antitumor IV testing. It is filed as in vivo, Balb/c×DBA 2 F1 (CDF1) hybrid mice. The following applies: for Maximum Effect T-C days (delay of median time to grow tumor to 1 gm): intravenous, once daily on days 4-8 post-tumor implant, sc tumor. The procedure:
Mice M109 Model (In-Vivo Activity)
Balb/c×DBA 2 F1 (CDF1) hybrid mice were implanted subcutaneously (sc) with 0.1 mL of a 2% (w/v) brei of M109 lung carcinoma (as described by William Rose in Evaluation of Madison 109 Lung Carcinoma as a Model for Screening Antitumor Drugs, Cancer Treatment Reports, 65, No. 3-4 (1981)).
The test compounds and reference drug, paclitaxel, were administered intravenously to groups of mice; each group received a compound at a different dose level, and three or four different dose levels were evaluated per compound. Mice were treated with compounds intravenously, once daily, on days 4, 5, 6, 7, and 8 post-tumor implant. Mice were followed daily for survival until their death or approximately 60-90 days post-tumor implant whichever occurred first. One group of mice per experiment remained untreated and served as the primary control group; a secondary control group was typically included and received 1/10th the tumor inocula of all the other groups of mice (i.e., 0.1 ml of a 0.2% (w/v) brei of M109 lung carcinoma). Tumors were also measured once or, more often, twice weekly to estimate the tumor weight according to the published procedure (ibid).
Median survival times of compound-treated (T) mice were compared to the median survival time of the control (C) mice. The ratio of the two values for each compound-treated group of mice was multiplied by 100 and expressed as a percentage (i.e. % T/C) in the following Table II for representative compounds. Additionally, the difference between the median time for treated groups and that for the control group to grow tumor to 1 gm, expressed as T-C values in days, is also shown in the following table. The greater the T-C value, the greater the delay in primary tumor growth. […] When the difference in the time to grow 1 gm tumors in both primary and secondary control groups is greater than 4 days, that difference becomes the criterion for activity.
Advanced Distal Site Antitumor IV Testing of Paclitaxel Derivatives

Experiment [1] concerns HCT116 human colon carcinoma cells. Kind of experiment: XTT cytotoxicity assay in HCT116 human colon carcinoma cells. It is filed as cell-based. The conditions noted are these: read-out: Cytotoxicity Assay IC50 against HCT 116 Human colon tumor cell line. The procedure: Cytotoxicity was assessed in HCT116 human colon carcinoma cells by XTT (2,3-bis(2-methoxy-4-nitro-5-sulfophenyl)-5-[(phenylamino)carbonyl]-2H-tetrazolium hydroxide assay (1). Cells were plated at 4000 cells/well in 96 well microtiter plates and 24 hrs later drugs were added and serial diluted. The cells were incubated at 37° C. for 72 hrs at which time the tetrazolium dye, XTT, containing phenazine methosulfate was added. A dehydrogenase enzyme in live cells reduces the XTT to a form that absorbs light at 450 nm which can be quantitated spectrophotometrically. The greater the absorbance the greater the number of live cells. The results are expressed as an IC50 which is the drug concentration required to inhibit cell proliferation (i.e. absorbance at 450 nm) to 50% of that of untreated control cells.
The IC50 values for compounds evaluated in this assay are contained in Table I.

The conditions of experiment [2]: cited from earlier work.
Setting [3] is: HCT-116, XTT, 72 hrs incubation at 37° C.

Structures are written as SMILES. Read-outs that look alike come from different tables or passages of the source.

One may read the IC50 as the concentration needed to halve the response being measured.

As for `CC(=O)O[C@H]1C(=O)[C@]2(C)[C@@H](OC[S+](C)[O-])C[C@H]3OC[C@@]3(OC(C)=O)[C@H]2[C@H](OC(=O)c2ccccc2)[C@]2(O)C[C@H](OC(=O)[C@H](O)[C@@H](NC(=O)c3ccccc3)c3ccccc3)C(C)=C1C2(C)C` (some centres unmarked), the “Maximum Effect % T/C (median survival time, treated vs control)” value is recorded as 141% with M109 lung carcinoma (15 mg/kg) and 129% in the experiment with M109 lung carcinoma (25 mg/kg). Besides, the “Maximum Effect T-C days (delay of median time to grow tumor to 1 gm)” value with M109 lung carcinoma (Opt. dose 15 mg/kg/inj) was 9.0 days; in the experiment with M109 lung carcinoma (Opt. dose 25 mg/kg/inj), 10.0 days.
For `CC(=O)O[C@H]1C(=O)[C@]2(C)[C@@H](OC[S+](C)[O-])C[C@H]3OC[C@@]3(OC(C)=O)[C@H]2[C@H](OC(=O)c2ccccc2)[C@]2(O)C[C@H](OC(=O)[C@H](O)[C@@H](NC(=O)c3ccccc3)c3ccccc3)C(C)=C1C2(C)C` (some centres unmarked) [2 & 3 (Example 1)], the IC50 in experiment [1] (HCT-116, 72 h) is 13 nM.
Consider `CC(=O)O[C@H]1C(=O)[C@]2(C)[C@@H](OCS(C)(=O)=O)C[C@H]3OC[C@@]3(OC(C)=O)[C@H]2[C@H](OC(=O)c2ccccc2)[C@]2(O)C[C@H](OC(=O)[C@H](O)[C@@H](NC(=O)c3ccccc3)c3ccccc3)C(C)=C1C2(C)C` [4 (Example 2)], for which the IC50 in experiment [1] (setting [3]) is 2.8 nM.
For the compound `CC(=O)O[C@H]1C(=O)[C@@]2(C)[C@H]([C@H](OC(=O)c3ccccc3)[C@]3(O)C[C@H](OC(=O)[C@H](O)[C@@H](NC(=O)c4ccccc4)c4ccccc4)C(C)=C1C3(C)C)[C@]1(OC(C)=O)CO[C@@H]1C[C@@H]2O` [paclitaxel], the “antitumor activity in in vivo animal models, in words” value in experiment [2] is recorded as “excellent antitumor activity”. In addition, the half-maximal inhibitory concentration (IC50) in experiment [1] (setting [3]) was 4.9 to 5.9 nM.
